Data: US7868013B2, “Cycloalkyl substituted pyrimidinediamine compounds and their uses” (Rigel Pharmaceuticals, Inc., priority 2004, dated 2011)
Counter-ions that a name gives are not always drawn. Like-named read-outs stand apart in the source and are kept apart here. Values belong to the compound of their own block, whether it stands above or below them.

Columns and labels:
Format in all cases: cell-based
[1] = test system: H1299 (non-small cell lung carcinoma); experiment: In vitro antiproliferation assay, H1299 cells (TABLE 1 6 point assay; TABLE 2)
Experimental: (§1) Certain compounds were tested against other cell types for their ability to inhibit proliferation in standard antiproliferation assays.

H7299 = experiment: In vitro antiproliferation assay, H7299 cells
Experimental: as §1

A549 (lung carcinoma) = experiment: In vitro antiproliferation assay, A549 cells (TABLE 1 6 point assay; TABLE 2)
Experimental: as §1

[2] = test system: a variety of tumor cell types; experiment: In vitro antiproliferation assays against a variety of tumor cell types (stereoisomer comparison); settings: for Inhibition of proliferation of a variety of tumor cell lines: in words
Experimental: Moreover, it has been discovered that the enantiomer corresponding to the (1R,2R,3S,4S) diastereomer of structural formula (IVa) is largely responsible for the potency of the exo-exo cis racemate.
as §1

[3] = test system: THP-1 (monocyte acute monocytic leukemia); experiment: In vitro antiproliferation assay, THP-1 cells; settings: Homo sapiens
Experimental: as §1

[4] = test system: SW620 (colorectal adenocarcinoma); experiment: In vitro antiproliferation assay, SW620 cells; settings: Homo sapiens, SW-620
Experimental: as §1

[5] = test system: MOLT3 (T lymphoblast acute lymphoblastic leukemia); experiment: In vitro antiproliferation assay, MOLT3 cells; settings: Homo sapiens, MOLT-3
Experimental: as §1

[6] = test system: K562 (bone marrow chronic myelogenous leukemia); experiment: In vitro antiproliferation assay, K562 cells; settings: Homo sapiens
Experimental: as §1

[7] = test system: L1210 (mouse lymphocytic leukemia); experiment: In vitro antiproliferation assay, L1210 cells; settings: Mus musculus
Experimental: as §1

[8] = test system: MOLT4 (T lymphoblast acute lymphoblastic leukemia); experiment: In vitro antiproliferation assay, MOLT4 cells; settings: Homo sapiens, MOLT-4
Experimental: as §1

[9] = test system: MiaPaCa-2 (pancreatic carcinoma); experiment: In vitro antiproliferation assay, MiaPaCa-2 cells; settings: Homo sapiens, MIA PaCa-2; Miapaca2; read-out: In Vitro IC50
Experimental: Cis racemic Compound 15, (1S,2R) enantiomeric Compound 15a and […] enantiomeric Compound 15b were also tested against DU145 (prostate carcinoma), HCT116 (colorectal carcinoma) and MiaPaCa-2 (pancreatic carcinoma) cell lines.
as §1

[10] = test system: HL160 (promyeloblast promyelocytic leukemia); experiment: In vitro antiproliferation assay, HL160 cells
Experimental: as §1

[11] = test system: U937 (histiocytic lymphoma); experiment: In vitro antiproliferation assay, U937 cells; settings: Homo sapiens, U-937
Experimental: as §1

[12] = test system: COLO 205 (colorectal adenocarcinoma); experiment: In vitro antiproliferation assay, COLO 205 cells; settings: Homo sapiens, COLO 205; Colo205
Experimental: as §1

[13] = 6 point assay, H1299 cells, read-out: IC50, H1299 cells
[14] = 6 point assay, A549 cells, read-out: IC50, A549 cells
[15] = Homo sapiens, NCI-H1299, 6 point assay, H1299 cells, read-out: IC50, H1299 cells
[16] = Homo sapiens, A549, 6 point assay, A549 cells, read-out: IC50, A549 cells

Compound: Cc1cc(Nc2ncc(F)c(NC3C4C=CC(C4)C3C(N)=O)n2)ccc1N1CCN(C)CC1 (racemic) [Compound 60r2, Racemic-(2-endo,3-endo)-N4-(3-aminocarbonylbicyclo[2.2.1]hept-5-en-2-yl)-5-fluoro-N2-[3-methyl-4-(4-methylpiperazin-1-yl)phenyl]-2,4-pyrimidinediamine]
- IC50 [1, 13]: 100 to 1000 nM
- IC50 (H7299): ≤ 1000 nM
- IC50 (A549 (lung carcinoma); [14]): 100 to 1000 nM
- IC50 (A549 (lung carcinoma); A549, read-out: In Vitro IC50): ≤ 1000 nM

Compound: Cc1cc(Nc2ncc(F)c(NC3C4C=CC(C4)C3C(N)=O)n2)ccc1N1CCN(C)CC1 (racemic) [Compound 228, Racemic N4-(3-Aminocarbonylbicyclo[2.2.1]hept-5-en-2-yl)-5-fluoro-N2-[3-methyl-4-(4-methylpiperazin-1-yl)phenyl]-2,4-pyrimidinediamine Hydrogen Chloride Salt]
- IC50 [1, 13]: ≤ 100 nM
- IC50 ([1]; H1299, read-out: In Vitro IC50): ≤ 1000 nM
- IC50 (H7299): ≤ 1000 nM
- IC50 (A549 (lung carcinoma); [14]): ≤ 100 nM
- IC50 (A549 (lung carcinoma); A549, read-out: In Vitro IC50): ≤ 1000 nM

Compound: Cc1cc(Nc2ncc(F)c(NC3C4C=CC(C4)C3C(N)=O)n2)ccc1N1CCN(C)CC1 (racemic) [cis exo-exo racemate, N4-(3-aminocarbonylbicyclo[2.2.1]hept-5-en-2-yl)-5-fluoro-N2-[3-methyl-4-(4-methylpiperazin-1-yl)phenyl]-2,4-pyrimidinediamine]
- Potency relative to the cis endo-endo racemate ([2]; cis exo-exo racemate, all cell lines tested): approximately twenty-fold more potent

Compound: Cc1cc(Nc2ncc(F)c(NC3C4C=CC(C4)C3C(N)=O)n2)ccc1N1CCN(C)CC1 [(1S,2S,3R,4R) diastereomer, N4-(3-aminocarbonylbicyclo[2.2.1]hept-5-en-2-yl)-5-fluoro-N2-[3-methyl-4-(4-methylpiperazin-1-yl)phenyl]-2,4-pyrimidinediamine]
- IC50s when tested as isolated stereoisomers ([2]; range in words, same cell lines): micromolar range

Compound: Cc1cc(Nc2ncc(F)c(NC3CCCC3C(N)=O)n2)ccc1N1CCN(C)CC1 [cis (1R,2S), N4-(2-aminocarbonylcyclopent-1-yl)-5-fluoro-N2-[4-(4-methylpiperazin-1-yl)-3-methylphenyl]-2,4-pyrimidinediamine]
- Inhibition of proliferation of a variety of tumor cell lines [2]: inhibit the proliferation

Compound: Cc1cc(Nc2ncc(F)c(NC3CCCC3C(N)=O)n2)ccc1N1CCN(C)CC1 [cis (1S,2R), N4-(2-aminocarbonylcyclopent-1-yl)-5-fluoro-N2-[4-(4-methylpiperazin-1-yl)-3-methylphenyl]-2,4-pyrimidinediamine]
- Inhibition of proliferation of a variety of tumor cell lines [2]: inhibit the proliferation

Compound: Cc1cc(Nc2ncc(F)c(N[C@@H]3CCC[C@@H]3C(N)=O)n2)ccc1N1CCN(C)CC1 [compound 222, (1R,2S)-N4-(2-Aminocarbonylcyclopent-1-yl)-5-fluoro-N2-[3-methyl-4-(4-methylpiperazin-1-yl)phenyl]-2,4-pyrimidinediamine Bis Hydrogen Chloride Salt]
- IC50 [3]: ≤ 1000 nM
- IC50 [4]: ≤ 1000 nM
- IC50 [5]: ≤ 1000 nM
- IC50 [6]: > 1000 nM
- IC50 [7]: ≤ 1000 nM
- IC50 [8]: ≤ 1000 nM
- IC50 [1, 13]: 100 to 1000 nM
- IC50 ([1]; Homo sapiens, NCI-H1299, H1299, read-out: In Vitro IC50): ≤ 1000 nM
- IC50 [9]: ≤ 1000 nM
- IC50 [10]: ≤ 1000 nM
- IC50 [11]: ≤ 1000 nM
- IC50 (A549 (lung carcinoma); [14]): 100 to 1000 nM
- IC50 (A549 (lung carcinoma); Homo sapiens, A549, A549, read-out: In Vitro IC50): ≤ 1000 nM
- IC50 [12]: ≤ 1000 nM

Compound: Cc1cc(Nc2ncc(F)c(NC3C4CC5CC(C4)CC3C5)n2)ccc1N1CCN(C)CC1 (stereo not drawn) [compound 258, N4-(2-Adamantyl)-5-fluoro-N2-[3-methyl-4-(4-methylpiperazin-1-yl)phenyl]-2,4-pyrimidinediamine]
- IC50 [1, 15]: 1000 to 10000 nM
- IC50 (A549 (lung carcinoma); [16]): 1000 to 10000 nM

Compound: Cc1cc(Nc2ncc(F)c(NC3CCCC3C(N)=O)n2)ccc1N1CCN(C)CC1 [trans (1R,2R) diastereomer, N4-(2-aminocarbonylcyclopent-1-yl)-5-fluoro-N2-[4-(4-methylpiperazin-1-yl)-3-methylphenyl]-2,4-pyrimidinediamine]
- Inhibition of proliferation of a variety of tumor cell lines [2]: inhibit the proliferation

Compound: Cc1cc(Nc2ncc(F)c(NC3CCCC3C(N)=O)n2)ccc1N1CCN(C)CC1 [trans (1S,2S) diastereomer, N4-(2-aminocarbonylcyclopent-1-yl)-5-fluoro-N2-[4-(4-methylpiperazin-1-yl)-3-methylphenyl]-2,4-pyrimidinediamine]
- Inhibition of proliferation of a variety of tumor cell lines [2]: relatively inactive

Next, values leading:

- IC50 [1, 15]: 1000 to 10000 nM
- IC50 (A549 (lung carcinoma); [16]): 1000 to 10000 nM
Compound: Cc1cc(Nc2ncc(F)c(NC34CC5CC(CC3C5)C4)n2)ccc1N1CCN(C)CC1 [compound 259, 5-Fluoro-N2-[3-methyl-4-(4-methylpiperazin-1-yl)phenyl]-N4-(3-noradamantyl)-2,4-pyrimidinediamine]

- IC50 [1, 13]: ≤ 100 nM
- IC50 (A549 (lung carcinoma); [14]): ≤ 100 nM
Compound: CCS(=O)(=O)N1CCN(c2ccc(Nc3ncc(F)c(N[C@H]4[C@@H](C(N)=O)[C@@H]5C=C[C@H]4C5)n3)cc2C)CC1 [compound 269, (1R,2R,3S,4S)-N4-(3-Aminocarbonylbicyclo[2.2.1]hept-5-en-2-yl)-N2-[3-methyl-4-(4-ethylsulfonylpiperazin-1-yl)phenyl]-5-fluoro-2,4-pyrimidinediamine]

- IC50 ([1]; 6 point assay, H1299 cells, Bis Hydrochloride Salt, read-out: IC50, H1299 cells): 1000 to 10000 nM
- IC50 (A549 (lung carcinoma); 6 point assay, A549 cells, Bis Hydrochloride Salt, read-out: IC50, A549 cells): 1000 to 10000 nM
Compound: CCS(=O)(=O)N1CCN(c2ccc(Nc3ncc(F)c(N[C@H]4[C@@H](C(N)=O)[C@@H]5C=C[C@H]4C5)n3)cc2C)CC1 [compound 270, (1R,2R,3S,4S)-N4-(3-aminocarbonylbicyclo[2.2.1]hept-5-ene-2-yl)-N2-[3-methyl-4-(4-ethylsulfonylpiperazin-1-yl)phenyl]-5-fluoro-2,4-pyrimidinediamine Bis Hydrochloride Salt]

- IC50 [1, 15]: ≤ 100 nM
- IC50 (A549 (lung carcinoma); [16]): ≤ 100 nM
Compound: Cc1cc(Nc2ncc(F)c(N[C@H]3[C@@H](C(N)=O)[C@@H]4C=C[C@H]3C4)n2)ccc1NC1CCN(C)CC1 [compound 272, (1R,2R,3S,4S)-N4-(3-Aminocarbonylbicyclo[2.2.1]hept-5-en-2-yl)-5-fluoro-N2-(3-methyl-4-(1-methylpiperidin-4-ylamino)phenyl]-2,4-pyrimidinediamine]

- IC50 [1, 15]: 100 to 1000 nM
- IC50 (A549 (lung carcinoma); [16]): ≤ 100 nM
Compound: NC(=O)[C@@H]1[C@H](Nc2nc(Nc3ccc(C4CCNCC4)cc3)ncc2F)[C@H]2C=C[C@@H]1C2 [compound 273, (1R,2R,3S,4S)-N4-(3-Aminocarbonylbicyclo[2.2.1]hept-5-en-2-yl)-5-fluoro-N2-[4-(piperidin-4-yl)phenyl]-2,4-pyrimidinediamine]

- IC50 [1, 15]: ≤ 100 nM
- IC50 (A549 (lung carcinoma); [16]): ≤ 100 nM
Compound: NC(=O)[C@@H]1[C@H](Nc2nc(Nc3cccc(C4CCNCC4)c3)ncc2F)[C@H]2C=C[C@@H]1C2 [compound 274, (1R,2R,3S,4S)-N4-(3-Aminocarbonylbicyclo[2.2.1]hept-5-en-2-yl)-5-fluoro-N2-[3-(piperidin-4-yl)phenyl]-2,4-pyrimidinediamine]

- IC50 [1, 15]: ≤ 100 nM
- IC50 (A549 (lung carcinoma); [16]): ≤ 100 nM
Compound: CN1CCC(c2cccc(Nc3ncc(F)c(N[C@H]4[C@@H](C(N)=O)[C@@H]5C=C[C@H]4C5)n3)c2)CC1 [compound 275, (1R,2R,3S,4S)-N4-(3-Aminocarbonylbicyclo[2.2.1]hept-5-en-2-yl)-5-fluoro-N2-[3-(1-methylpiperidin-4-yl)phenyl]-2,4-pyrimidinediamine]
